Patent publication US20120053076A1, “METHODS FOR IDENTIFICATION” (Cambridge Enterprise Limited, priority 2009, published 2012)
Where two headings read alike, the source gives them in different places.

Key:
[1] = test system: Panc-2H4 cells; assay: Human Panc-2H4 insulin suppression assay; assay type: cell-based
Text: Two different assays for “classical” sstr2 functions were adopted: (1) cultured foetal rat pituitary cells secreted growth hormone which is inhibited by sstr2 agonists in a dose-dependent fashion and (2) selected glucose-sensitive sub-clones of the human Panc-1 cell line secrete insulin which is inhibited by sstr2 agonists in a dose-dependent fashion.
Glucose-sensitive sub-clones of the human Panc-1, a cell line derived from a pleiomorphic epithelioid carcinoma of the exocrine pancreas, were obtained essentially as described by Hamil et al. (2008) Biomed. Sci. Instrum. 44:441-6. Briefly, Panc-1 cells were subcultured in 24 well plates, and the medium was supplemented with an additional 5% glucose. […] The resulting sub-lines were then tested for glucose sensitivity by preparing wells of a 96-well plate (5×10^4 cells per well) which were then exposed to cultured medium containing a range of glucose concentrations (low glucose DMEM, DMEM, DMEM+1% glucose, DMEM+2.5% glucose and DMEM+5% glucose). After 24 hrs incubation, the conditioned medium was collected and assayed for insulin secretion by ELISA (Linco; cat# EZHI-14K) in accordance with the manufacturer's instructions.
Further 96 well plates were prepared using Panc-2H4 (5×10^4 cells per well) in DMEM. After 24 hrs, the medium was switched to DMEM+5% glucose containing various test agents at various concentrations (triplicate wells per condition). After a further 24 hrs, the conditioned medium was harvested and the concentration of insulin was determined by ELISA as described above.
Results were reported as the mean±SD, expressed as the fold change from cells in the presence of vehicle only.

[2] = test system: THP-1 cells; assay: MCP-1 induced THP-1 cell migration, Transwell assay; assay type: cell-based, human
Experimental: Leukocyte migration was measured using the 96-well format micro Transwell® assay system from Neuroprobe (Gaithersburg, Md., USA). In principle, this assay consists of two chambers separated by a porous membrane. The chemoattractant is placed in the lower compartment and the cells are placed in the upper compartment.
The method was performed essentially as previously described (Reckless & Grainger (1999) Biochem. J. 340:803-11).
First, the cell suspension to be placed in the upper compartment was prepared. The THP-1 cells were pelleted by centrifugation (770×g; 4 mins) and washed with Geys Balanced Salt Solution with 1 mg/ml BSA (GBSS+BSA). This wash was then repeated, and the cells re-pelleted before being resuspended in a small volume of GBSS+BSA for counting, for example using a standard haemocytometer.
The volume of GBSS+BSA was then adjusted depending on the number of cells present so that the cells were at final density of 4.45×10^6 cells per ml of GBSS+BSA. This ensured that there were 100,000 THP-1 cells in each 25 μl of the solution to be placed in the upper chamber of the plate.
The suspension of THP-1 cells at 4.45×10^6 cells/ml was divided into three pots. […] To the second pot, the BSCI was added at the same concentration as in the first pot, but additionally the sstr2 antagonist was also added (for example BIM 23454 [Tulipano et al. (2002) 143:1218-24] or BIM 23627 were added at 66 nM final concentration from a stock solution in GBSS). To the third pot, GBSS+BSA plus vehicle as appropriate was added so that the volumes in three pots are equal, acting as a control.
Next, the chemoattractant solution to be placed in the lower compartment was prepared. MCP-1 was diluted in GBSS+BSA to give a final concentration of 25 ng/ml (after all additions). Note that, as recommended by Frow et al (Med. Res. Rev. 24:276-98) this is the concentration of MCP-1 which induces maximal migration in this system. This solution was divided into three pots, as for the cell suspension. To one pot, the BSCI was added to the same final concentration as was added to the cell suspension, in the second pot the BSCI and the sstr2 antagonist were both added at the same concentration as previously added to the cell suspension, while to the remaining pot GBSS+BSA plus vehicle as appropriate was added so that the volumes in the three pots were equal.
Once the chemoattractant solutions for the lower wells and cell solutions for the upper chambers were prepared, the migration chamber was assembled. 29 μl of the appropriate chemoattractant solution was placed into the lower well of the chamber. Assays were performed with at least triplicate determinations of each condition. Once all the lower chambers were filled, the porous membrane was applied to the chamber in accordance with the manufacturer's instructions. Finally, 25 μl of the appropriate cell solution was applied to each upper chamber. A plastic lid was placed over the entire apparatus to prevent evaporation.
The assembled chamber was incubated at 37° C., 5% CO2, for 2 hours.
At the end of the incubation, the liquid cell suspension was gently removed from the upper chamber, 20 μl of ice-cold 20 mM EDTA in PBS was added to the upper chamber, and the apparatus was incubated at 4° C. for 15 mins. This procedure caused any cells adhering to the underside of the membrane to fall into the lower chamber.
After this incubation the filter was carefully flushed with GBSS+BSA to wash off the EDTA, and then the filter was removed.
The number of cells migrated into the lower chamber under each condition can then be determined by a number of methods, including direct counting, labelling with fluorescent or radioactive markers or through the use of a vital dye. Typically, we utilised the vital dye MTT.

[3] = test system: TNF-alpha production in response to bacterial endotoxin; assay: Sub-lethal endotoxemia model, serum TNF-alpha after LPS; assay type: in vivo; details: mouse, serum 2 hours after LPS
Experimental: We selected the sub-lethal endotoxemia model in mouse, because this has been well characterised in our laboratory (see for example Fox et al. (2002) J. Med. Chem. 45:360-70; Fox et al. (2005) J. Med. Chem. 48:867-74). The extent of systemic inflammation in response to a single intraperitoneal injection of bacterial lipopolysaccharide (LPS) can be estimated by measuring serum TNF-alpha 2 hours post challenge.
Methods: Mice (CD1 strain; adult males; 6 per group) were treated with BSCI (in an appropriate vehicle) or with vehicle alone by an appropriate route. […] Simultaneously, one set of mice at each BSCI concentration received BIM 23627 at […] by sub-cutaneous injection (a treatment condition known to suppress classical sstr2-mediated signalling, such as GH release, in rats; Tulipano et al. (2002) 143:1218-24). […]
After, a further 2 hours, the animals were sacrificed by CO2 asphyxiation, and blood was drawn by cardiac puncture. Serum was prepared by conventional methods, and the level of TNF-alpha in serum was measured using an ELISA (R&D Systems; Murine Quantikine code# MTA00) performed in accordance with the manufacturer's instructions. […]

Molecule | EC50 ([1]; Homo sapiens, Table 3, read-out: Human Panc-2H4 insulin suppression assay ED50) | Emax ([2]; Homo sapiens, THP-1, read-out: Human chemokine-induced THP-1 migration assay Max effect) | Inhibition of MCP-1 induced THP-1 cell migration, in words ([2]; MCP-1 25 ng/ml) | Inhibition of TNF-alpha production in response to endotoxin, in words [3] | EC50 ([1]; Table 3, read-out: Human Panc-2H4 insulin suppression assay ED50) | Human Panc-2H4 insulin suppression assay Max effect ([1]; Table 3, suppression compared to vehicle) | Panc-2H4 insulin suppression assay (“classical” target) Max Effect ([1]; Table 5) | EC50 ([1]; Table 5, read-out: Panc-2H4 insulin suppression assay (“classical” target) ED50) | Human chemokine-induced THP-1 migration assay Max effect ([2]; Table 3) | Chemokine-induced THP-1 cell migration assay (“BSCI” target) Max Effect ([2]; Table 5)
CC(C)(C)C(=O)N[C@H]1CCCNC1=O [Valerolactam, (S)-3-(2′,2′-dimethylpropionoylamino)-tetrahydropyridin-2-one] | > 1 µM | 100% | inhibits MCP-1 induced cell migration in a dose-dependent manner | dramatically inhibited | – | – | – | – | – | –
(S)-3-(2′,2′-dimethyldodecanoyl)amino-caprolactam [BN83250] | – | – | – | dramatically inhibited | 1 µM | 28% | 28% | 1 µM | 100% | 100%
